Data from patent publication EP4613269A1, “RIFAXIMIN FOR USE IN TREATING SARCOPENIA IN PATIENTS WITH LIVER DISEASE” (priority 2024, dated 2025).

Assays:
[1] = Retrospective cohort study: skeletal muscle area (SMA) at L3 from serial abdominal CT scans; format: in vivo, human; conditions: for Follow-up skeletal muscle area: Median (IQR) at second CT scan, rifaximin N = 63 (with lactulose), lactulose alone N = 79; for median change in SMA: between first and second abdominal CT scan (3-9 months apart), patients with cirrhosis and HE, rifaximin 550 mg twice daily orally with lactulose vs lactulose monotherapy
From the text: (§1) This study is a single-centre retrospective cohort study of patients treated with lactulose or rifaximin with lactulose, under the care of the liver transplant service in Melbourne, Australia, between 2009 and 2022. The primary outcome measure was a change in muscle mass over time between the rifaximin versus non-rifaximin treated cohort. Secondary outcomes included. Clostridium difficile infection and mortality.
(§2) All adult patients (age >18 years) with cirrhosis and documented clinically apparent hepatic encephalopathy (HE) known to the Victorian liver transplant service were considered for analysis. Inclusion criteria required patients to have had serial abdominal CT scans at least 3 months and at most 9 months apart during their time on the liver transplant waitlist to allow for comparison of muscle mass over time. Rifaximin became widely available as a treatment of HE on the Pharmaceutical Benefits Scheme in Australia in January 2014. Therefore, patients on lactulose monotherapy (January 2009 to December 2013) were compared to those receiving rifaximin with lactulose (January 2014 to July 2022). Patients were orally administered 550 mg of rifaximin (alpha) twice daily. Lactulose treatment for HE was under standard conditions, i.e. lactulose administration in syrup form at a dose of 15 to 30 mL two to four times a day to aim for two semisoft stools per day. Patients otherwise received standard of care management of cirrhosis including nutritional advice from an experienced liver dietitian.
Muscle mass data was calculated from CT scans performed at two time-points in the patient journey to determine progress and change of outcomes. The first time-point for data collection, including for demographics and blood parameters, was time of first CT. The second time-point for data collection was collected between three to nine months following the first time point when the follow up CT was performed.
SMA was measured using the cross-sectional area of the abdominal muscles at the third lumbar vertebrae (L3) using CoreSlicer (^©2018), a web-based program for accurate measurement of body composition, verified for this purpose (Mullie & Afilalo "CoreSlicer: a web toolkit for analytic morphomics" BMC Med. Imaging (2019), 19(1): 15).
Statistical analysis was performed using R version 4.1.1. Subgroups were compared by χ^2 test for categorical variables and Student's t-test or Wilcoxon rank sum test for parametric and non-parametric continuous variables, respectively. Linear regression models (analysis of covariance) were used to assess the impact of clinical variables on muscle endpoints. […]
Averages were expressed as mean ± standard deviation for normally distributed variables, and as medians ± IQR for non-normally distributed variables.

[2] = Retrospective cohort study: clinical outcomes (transplant outcome, mortality, Clostridium difficile infection); format: in vivo, human; conditions: for Transplant outcome: Died on list: died awaiting transplantation; for episodes of Clostridium difficile infection: during study follow-up; for Transplant outcome: Delisted / Transplant outcome: Rejected / Transplant outcome: Transplanted: liver transplant waitlist patients with cirrhosis and HE; for median time to death from listing: patients who died awaiting transplant; for Median time-to-transplant: transplanted patients
From the text: as §1, §2
Included data comprised baseline demographics (age, gender, aetiology of liver disease, body mass index (BMI)); disease assessment at workup (Sodium Model of End-Stage Liver Disease (NaMELD)), Child-Pugh-Turcotte (CTP) score; sarcopenia assessment (skeletal muscle area (SMA, cm^2)) from single slice CT scan, sepsis (hospitalisation data for infective complications, episodes of spontaneous bacterial peritonitis); rifaximin complications (Clostridium difficile infections); and mortality and transplantation outcome data.
Patients were followed up until: end outcomes occurred; delisting from service; rejected prior to formal transplant workup; death prior to transplant; or liver transplantation.

| SMILES | Follow-up skeletal muscle area [1] | median change in SMA [1] | Transplant outcome: Died on list [2] | Transplant outcome: Died on list ([2]; listed as lactulose) | episodes of Clostridium difficile infection [2] | Transplant outcome: Delisted [2] | Transplant outcome: Rejected [2] | Transplant outcome: Transplanted [2] | median time to death from listing [2] [days] | Median time-to-transplant [2] [days] |
| --- | --- | --- | --- | --- | --- | --- | --- | --- | --- | --- |
| OC[C@H]1O[C@@H](O[C@@H]2[C@@H](CO)OC(O)(CO)[C@H]2O)[C@H](O)[C@@H](O)[C@H]1O (mixture of isomers) [Lactulose alone, Lactulose] | 159 (137, 174) cm^2 | -6.9 cm^2 | 5 (6.5%) n (%) | 5 (6.5 %) n (%) | none | 15 (19%) n (%) | 0 (0%) n (%) | 57 (74%) n (%) | 282 | 312.5 |
| CO[C@H]1/C=C/O[C@@]2(C)Oc3c(C)c(O)c4c(O)c(c5c(nc6cc(C)ccn65)c4c3C2=O)NC(=O)/C(C)=C\C=C\[C@H](C)[C@H](O)[C@@H](C)[C@@H](O)[C@@H](C)[C@H](OC(C)=O)[C@@H]1C [Rifaximin, 4-deoxy-4'-methylpyrido[1',2'-1,2]imidazo-[5,4-c] rifamycin SV] | 162 (134, 190) cm^2 | +0.74 cm^2 | 2 (3.4%) n (%) |  | one | 4 (6.9%) n (%) | 1 (1.7%) n (%) | 51 (88%) n (%) | 265.5 | 353 |
